# Reference: patent US20110295343A1, “NEAR-INFRARED ELECTROMAGNETIC MODIFICATION OF CELLULAR STEADY-STATE MEMBRANE POTENTIALS” (priority 2008, published 2011)
# “And” between values parts separate entries of the source, which are not always exact repeats. Equal entries are not always repeated.
# What was measured:
# MRSA in the nares = test: Nasal colonization human study Part One, quantitative swab cultures, MRSA; format: in vivo, S. aureus; conditions: for MRSA Average: laser w/ drug arm, one line per patient; for reduction of bioburden: laser plus 2% erythromycin paste
# Experimental: (§1) This investigational protocol was an open-label study of subjects who are colonized with MRSA in the nares (nostril). The study was done in two parts.
# (§2) In this human study, three arms were produced. […] This was done on day 1 and again on day three; and Arm #3: ⅓ of the subjects were treated with the laser and then a topical antibiotic three times a day for five days. Prior to enrollment in this study, prospective subjects met all of the following criteria: age≧18 years and ≦70 years of age; previous positive MRSA culture; negative urine pregnancy test or post-menopausal for one year; willing to comply with study requirements, including return visits and self-application of topical antibiotics; and willing to provide informed consent to participate. Prospective subjects were excluded from this study if any of the following criteria were met: pregnancy; patients who are severely immunocompromised (such as may occur in AIDS, renal transplant regimens, immunosuppressed states consequent to malignancy or agents used in rendering oncologic care, or who suffer from end stage renal disease); diabetic patients; allergy to antimicrobials being used in the study (group 3).
# (§3) All participants underwent an initial quantitative assessment for nasal carriage of S. aureus, during their first visit. Each participant had the anterior nares (each nostril) sampled for culture with a circular movement (three rotations on each side) of a sterile wood applicator plain Rayon® tipped swab in each nostril and placed in a labled tube. 2 ml of room temp phosphate buffered saline was placed in the tube after the removal of the swab (to completely cover the swab in the tube). Each swab was then placed back in the tube and the tube was then vortexed for 15 seconds to disperse isolates of MRSA and/or MSSA into the PBS solution. Aliquots of PBS from the tube were plated in the following manner: 100 μl from each tube was lawn plated in triplicate (3×) on selective Chromogenic MRSA And MSSA agar. Plates were placed in incubator within 30 minutes of the plating procedure, and colonies were counted manually, and recorded 18 hrs after plating.
# (§4) On day one of the study, all subjects underwent this exact procedure in arms 1 and 2 of the study two minutes before the laser procedure. They again were sampled in the same manner 2 minutes after the laser procedure. In the third arm of the study, they were swabbed two minutes before the procedure and the first antibiotic administration was completed after the laser therapy. The post/laser swab sample was taken for this arm 20 min later.
# (§5) On day three of the study, all subjects from arms one two and three underwent the exact same procedures as day 1 of the study.
# (§6) On day five all subjects from all arms underwent just one swabbing per nostril with the exact same sampling procedure one time.
# (§7) Application of H202: 3% OTC hydrogen peroxide was applied to a cotton pledget for application to the subject prior to irradiation. This was inserted in the nose for 120 seconds and then removed. The subjects were then given doses of phototherapeutic near infrared radiation as described. Application of generic topical Antimicrobial: The subjects were first given doses of phototherapeutic near infrared radiation as described. […] The swab was inserted approximately 1 cm in to the anterior nares and rotated 360 degrees several times and removed. Patients were instructed to perform the exact application procedure 3 times a day for the remaining 5 days.
# (§8) The NOVEON™ laser was used for two (2) six-minute treatments in each nostril on day (1) and day (3) of the study.
# (§9) The laser was calibrated before the first treatment of the day. Intermittent temperature testing of the treatment site was performed on each subject using a noncontact infrared thermometer (Raytek Minitemp), 30-60 second intervals.
# MRSA = test: CFU counts of MRSA plated on agar with antibiotic after sub-lethal NIMELS laser (Examples IX-XII); format: cell-based, Staphylococcus aureus; conditions: for effect of sub-lethal NIMELS irradiation on antibiotic action against MRSA colonies (words): antibiotic at resistant MIC just below effectiveness level
# From the text: The following parameters illustrate the general bacterial methods according to the invention as applied to MRSA for the in vitro Experiments V and VIII-XII.
# The null hypothesis is μ1−μ2=0 and μ1−μ3=0 where:
# a) μ1 is sub-lethal dosimetry from the NIMEL laser system on MRSA as a control and;
# The null hypothesis is μ1−μ2=0 and μ1−μ3=0 where: • a) μ1 is sub-lethal dosimetry from the NIMEL laser system on MRSA as a control and; • b)μ2 is the same sub-lethal dosimetry from the NIMEL laser system on MRSA with the addition of tetracycline at resistant MIC just below effectiveness level and; • c) μ3 is the same sub-lethal dosimetry from the NIMEL laser system on MRSA with the addition of rifampin at resistant MIC just below effectiveness level.
# The null hypothesis is μ1−μ2=0 and μ1−μ3=0 where: a) μ1 is sub-lethal dosimetry from the NIMEL laser system on MRSA as a control and; b)μ2 is the same sub-lethal dosimetry from the NIMEL laser system on MRSA with the addition of methicillin at resistant MIC just below effectiveness level and; […]
# MSSA in the nares [1] = test: Nasal colonization human study Part Two, laser plus topical erythromycin, MSSA; format: in vivo, S. aureus; conditions: one patient, baseline count >1000 CFU's; day 5 culture
# Experimental: A second human study was conducted, to further evaluate the therapeutic potential of the NOVEON™ laser system, including its ability to reverse drug resistance in bacteria. The study was conducted in a similar manner as Part One, above. Outcome measures assessed included both laboratory study and clinical observations.
# Positive anterior nares cultures were obtained in six patients (12 nostrils) having nasal colonization of MRSA or MSSA, before initiating bacterial photodamage through doses of phototherapeutic near infrared radiation. One patient had MRSA only, 3 had MSSA only, and 2 had both MRSA and MSSA.
# The swab was inserted approximately 1 cm in to the anterior nares of the subject, rotated 360 degrees several times and removed.
# The laser was calibrated before the first treatment of the day and between each patient. The NOVEON™ laser was used for four six-minute treatments of the nares at the following sets of dosimetries (Tables 59), which were evaluated for safety in previous studies. […] Temperatures of the nares were recorded every 30 seconds with an IR temperature thermometer.
# Quantitative cultures from each nostril were obtained and plated in triplicate on chromogenic agar before and 20 minutes after exposure on day 1 and day 3. […]
# MSSA in the nares [2] = test: Nasal colonization human study Part One, quantitative swab cultures, MSSA; format: in vivo, S. aureus; conditions: for s. aureus Average: laser w/ drug arm, one line per patient
# Experimental: as §1, §2, §3, §4, §5, §6, §7, §8, §9
# [3] = Initial Analysis, Post-treatment swab, left nostril
# [4] = Initial Analysis, Post-treatment swab, right nostril
# [5] = Initial Analysis, Pre swab (baseline), left nostril, mean of triplicate plates
# [6] = Initial Analysis, Pre swab (baseline), right nostril
# [7] = Second Analysis, Post-treatment swab, left nostril
# [8] = Second Analysis, Post-treatment swab, right nostril
# [9] = Second Analysis, Pre swab, left nostril
# [10] = Second Analysis, Pre swab, right nostril
# [11] = Third Analysis, Swab, left nostril
# [12] = Third Analysis, Swab, right nostril
# [13] = patient 01-005, 2% erythromycin paste three times a day for five days
smiles,measurement,setting,value
CC[C@H]1OC(=O)[C@H](C)[C@@H](O[C@H]2C[C@@](C)(OC)[C@@H](O)[C@H](C)O2)[C@H](C)[C@@H](O[C@@H]2O[C@H](C)C[C@H](N(C)C)[C@H]2O)[C@](C)(O)C[C@@H](C)C(=O)[C@H](C)[C@@H](O)[C@]1(C)O [Erythromycin],MRSA Average,MRSA in the nares; [3],0 CFU (2×) and 166 CFU
same,MRSA Average,MRSA in the nares; [4],0 CFU (2×) and 1 CFU
same,MRSA Average,MRSA in the nares; [5],0 CFU (2×) and 3072 CFU
same,MRSA Average,MRSA in the nares; [6],0 CFU (2×) and 8 CFU
same,MRSA Average,MRSA in the nares; [7],0 CFU
same,MRSA Average,MRSA in the nares; [8],0 CFU
same,MRSA Average,MRSA in the nares; [9],0 CFU (2×) and 76 CFU
same,MRSA Average,MRSA in the nares; [10],0 CFU
same,MRSA Average,MRSA in the nares; [11],0 CFU
same,MRSA Average,MRSA in the nares; [12],0 CFU
same,reduction of bioburden,"MRSA in the nares; patient 01-005, heavily colonized nostril",≥ 3 log
same,reduction of bioburden,"MRSA in the nares; patient 01-005, moderately colonized nostril",≥ 2 log
same,"outcome on MRSA colonization, laser plus topical erythromycin",MRSA in the nares; [13],eradication in both nostrils
same,effect of sub-lethal NIMELS irradiation on antibiotic action against MRSA colonies (words),MRSA,successful reversal of MRSA resistance
same,effect of sub-lethal NIMELS irradiation on antibiotic action against MRSA colonies (words),MRSA; listed as erythromycin,resistance to erythromycin being reversed
same,"MRSA colony count, CONTROL (no laser)","MRSA; no laser, agar with erythro 4 ug/ml, replicates B-4 1 to 5",196 and 168 and 175 and 177 and 195
same,"MRSA colony count, EXPERIMENTAL","MRSA; sub-lethal NIMELS laser, agar with erythro 4 ug/ml, replicates B-4 1 to 5",27 and 39 (2×) and 35 and 28
same,reduction in MSSA,MSSA in the nares [1],3 log
same,s. aureus Average,MSSA in the nares [2]; [3],0 CFU (2×) and 188 CFU
same,s. aureus Average,MSSA in the nares [2]; [4],0 CFU
same,s. aureus Average,MSSA in the nares [2]; [5],0 CFU (2×) and 3045 CFU
same,s. aureus Average,MSSA in the nares [2]; [6],0 CFU (2×) and 16 CFU
same,s. aureus Average,MSSA in the nares [2]; [7],0 CFU
same,s. aureus Average,MSSA in the nares [2]; [8],0 CFU
same,s. aureus Average,MSSA in the nares [2]; [9],0 CFU (2×) and 71 CFU
same,s. aureus Average,MSSA in the nares [2]; [10],0 CFU
same,s. aureus Average,MSSA in the nares [2]; [11],0 CFU
same,s. aureus Average,MSSA in the nares [2]; [12],0 CFU
same,"outcome on MSSA colonization, laser plus topical erythromycin",MSSA in the nares [2]; [13],eradication in both nostrils
